Test results as given in patent publication US10214546B2, “Btk inhibitors” (MERCK SHARP & DOHME CORP., priority 2014, dated 2019).
Read-outs that look alike come from different tables or passages of the source.

Legend:
[1] = biological target: BTK enzyme (recombinant full-length BTK, hBTK) (Homo sapiens (Human), UniProt Q06187); assay: BTK enzymatic activity LANCE TR-FRET assay; type: biochemical; settings: 50 pM hBTK, 25 μM ATP, 2 μM biotin-A5-peptide; compound range 1 μM to 0.017 nM; read-out: BTK binding IC50
Sequence of BTK enzyme (recombinant full-length BTK, hBTK) (Q06187 whole entry): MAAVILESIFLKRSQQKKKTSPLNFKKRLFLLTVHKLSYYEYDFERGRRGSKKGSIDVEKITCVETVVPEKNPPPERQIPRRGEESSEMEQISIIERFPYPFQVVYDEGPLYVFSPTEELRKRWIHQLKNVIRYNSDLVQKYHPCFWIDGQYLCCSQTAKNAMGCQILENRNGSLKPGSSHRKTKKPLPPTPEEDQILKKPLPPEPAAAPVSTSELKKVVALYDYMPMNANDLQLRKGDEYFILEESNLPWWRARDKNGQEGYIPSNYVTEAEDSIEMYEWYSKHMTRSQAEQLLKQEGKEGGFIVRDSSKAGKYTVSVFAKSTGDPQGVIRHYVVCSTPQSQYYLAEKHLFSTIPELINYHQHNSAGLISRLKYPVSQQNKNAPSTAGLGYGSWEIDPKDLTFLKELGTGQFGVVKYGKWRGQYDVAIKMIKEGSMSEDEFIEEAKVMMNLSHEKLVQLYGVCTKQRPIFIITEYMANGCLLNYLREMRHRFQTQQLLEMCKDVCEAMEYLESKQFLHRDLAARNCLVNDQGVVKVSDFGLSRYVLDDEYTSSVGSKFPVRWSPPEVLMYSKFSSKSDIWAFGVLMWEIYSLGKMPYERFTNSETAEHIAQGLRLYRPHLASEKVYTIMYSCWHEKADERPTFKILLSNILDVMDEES
Method: Btk Enzyme Activity Assay Methods
BTK enzymatic activity was determined with the LANCE (Lanthanide Chelate Excite) TR-FRET (Time-resolved fluorescence resonance energy transfer) assay. […] Phosphorylation reactions were allowed to proceed for 120 minutes. […] After 60 minutes incubation with detection reagents, reaction plates were read on a PerkinElmer EnVision plate reader using standard TR-FRET protocol. […] IC50 values were determined by 4 parameter robust fit of TR-FRET ratio values vs. (Log10) compound concentrations.

[2] = tested on: adenosine uptake into HeLa cells; assay: [3H]Adenosine uptake assay in HeLa cells; type: cell-based; settings: compound range 10 μM to 0.032 nM
Method: Compounds are also screened in an adenosine uptake functional cellular assay using the protocol described below:
[^3H]Adenosine Uptake Assay Methods
Adenosine uptake activity was determined by monitoring the accumulation of tritiated adenosine into HeLa cells (ATCC catalog # CCL-2) using a PMT-based radiometric detection instrument. In this assay, the potency (IC50) of each compound was determined from a ten point (1:3 serial dilution; final compound concentration range in assay from 10 µM to […]) titration curve using the following outlined procedure. To each well of a 96-well CytoStar-T scintillating microplate (Perkin Elmer Catalog # RPNQ0163), 25 000 HeLa cells in 100 µL of growth medium comprising: Minimum Essential Media (Life Technologies Catalog #11095-080)+10% (v/v) foetal bovine serum (FBS; Sigma Aldrich Catalog # F2442) was added. These cells were incubated overnight at 37° C. in a humidified atmosphere with 5% (v/v) CO2. After this time the growth medium was removed and replaced with 40 μL assay medium comprising: Hanks balanced salts solution (HBSS; Thermo Fisher Catalog # SH30268.01)+5% (v/v) FBS. Compound stock solutions in DMSO were diluted in assay medium to 2.5× final compound concentration maintaining a constant DMSO concentration of 0.25% (v/v). 40 μL of compound in assay medium was dispensed into individual wells of the Cytostar-T plates and the plates were incubated for 30 minutes under ambient laboratory conditions. Following this incubation, 20 μL of 500 nM [^3H] adenosine (American Radiolabeled Chemicals Inc. […] The amount of radiolabel accumulation was then determined using a Perkin Elmer Topcount NXT microplate reader. In brief, HeLa cells adhere to the bottom of the Cytostar-T plate, uptake of [^3H]adenosine into these cells brings the radiolabel into sufficient proximity to excite the scintillant in the base of the plates. These events are captured by single PMT, time-resolved coincidence counting. IC50 values were determined by 4 parameter robust fit of counts per second values vs. (Log10) compound concentrations.

[3] = Homo sapiens, HeLa, [3H]adenosine accumulation in HeLa cells, read-out: ADU inhibition IC50
[4] = [3H]adenosine accumulation in HeLa cells, read-out: ADU inhibition IC50

| SMILES | IC50 [1] [nM] | IC50 [2, 3] [nM] | IC50 [2, 4] [nM] | IC50 ([2]; Homo sapiens, HeLa, read-out: ADU inhibition IC50 (nM), [3H]adenosine accumulation in HeLa cells) [nM] |
| --- | --- | --- | --- | --- |
| C[C@](O)(c1ccc(-c2nc([C@@H]3CC[C@H]4CCC(=O)N4C3)n3ccnc(N)c23)cc1)c1ccccc1F [Example 68, (6R,8aS)-6-(8-amino-1-{4-[(1S)-1-(2-fluorophenyl)-1-hydroxyethyl]phenyl}imidazo[1,5-a]pyrazin-3-yl)hexahydroindolizin-3(2H)-one] | 460 | 5550 |  |  |
| C[C@@](O)(c1ccc(-c2nc([C@@H]3CC[C@H]4CCC(=O)N4C3)n3ccnc(N)c23)cc1)c1cccc(N2CCOCC2)c1 [Example 66, (6R,8aS)-6-(8-amino-1-{4-[(1R)-1-hydroxy-1-(3-morpholin-4-ylphenyl)ethyl]phenyl}imidazo[1,5-a]pyrazin-3-yl)hexahydroindolizin-3(2H)-one] | 796 | 4190 |  |  |
| Nc1nccn2c([C@@H]3CC[C@H]4CCC(=O)N4C3)nc(-c3ccc([C@](O)(CO)c4cccc(C(F)(F)F)c4)cc3)c12 [Example 107, (6R,8aS)-6-[8-amino-1-(4-{(1R)-1,2-dihydroxy-1-[3-(trifluoromethyl)phenyl]ethyl}phenyl)imidazo [1,5-a]pyrazin-3-yl]hexahydroindolizin-3(2H)-one] | 939 | 530 |  |  |
| CCC(O)(c1ccc(-c2nc([C@@H]3CC[C@H]4CCC(=O)N4C3)n3ccnc(N)c23)cc1)c1cccc(C(F)(F)F)c1 (stereo partly drawn) [Example 55, (6R,8aS)-6-[8-amino-1-(4-{1-hydroxy-1-[3-(trifluoromethyl)phenyl]propyl}phenyl)imidazo [1,5-a]pyrazin-3-yl]hexahydroindolizin-3(2H)-one] | 1000 |  | 400 |  |
| CCOc1cc([C@@](C)(O)c2cccc(C(F)(F)F)c2)cc(F)c1-c1nc([C@@H]2CC[C@H]3CCC(=O)N3C2)n2ccnc(N)c12 [Example 212, (6R,8aS)-6-[8-amino-1-(2-ethoxy-6-fluoro-4-{(1S)-1-hydroxy-1-[3-(trifluoromethyl)phenyl]ethyl}phenyl)imidazo [1,5-a]pyrazin-3-yl]hexahydroindolizin-3(2H)-one] | 329 | 3520 |  |  |
| C[C@](O)(c1ccc(-c2nc([C@@H]3CC[C@H]4CCC(=O)N4C3)n3ccnc(N)c23)cc1)c1cccc(-c2ccccc2)c1 [Example 58, (6R,8aS)-6-(8-amino-1-{4-[(1S)-1-biphenyl-3-yl-1-hydroxyethyl]phenyl}imidazo[1,5-a]pyrazin-3-yl)hexahydroindolizin-3(2H)-one] | 63.1 | 450 |  |  |
| CC(O)(c1cccc(C(F)(F)F)c1)c1ccc(-c2nc([C@@H]3CC[C@H]4CCC(=O)N4C3)n3ccnc(N)c23)cc1F (stereo partly drawn) [Example 54, (6R,8aS)-6-[8-amino-1-(3-fluoro-4-{1-hydroxy-1-[3-(trifluoromethyl)phenyl]ethyl}phenyl)imidazo [1,5-a]pyrazin-3-yl]hexahydroindolizin-3(2H)-one] | 1000 |  | 473 |  |
| CC(O)(c1ccc(-c2nc([C@@H]3CC[C@H]4CCC(=O)N4C3)n3ccnc(N)c23)cc1)C1CC2CCC1CC2 (stereo partly drawn) [Example 143, (6R,8aS)-6-{8-amino-1-[4-(1-bicyclo[2.2.2]oct-2-yl-1-hydroxyethyl)phenyl]imidazo[1,5-a]pyrazin-3-yl}hexahydroindolizin-3(2H)-one] | 900 |  | 839 |  |
| C[C@@](O)(c1ccc(-c2nc([C@@H]3CC[C@H]4CCC(=O)N4C3)n3ccnc(N)c23)cc1)c1cc(C(F)(F)F)ccn1 [Example 37, (6R,8aS)-6-[8-amino-1-(4-{(1R)-1-hydroxy-1-[4-(trifluoromethyl)pyridin-2-yl]ethyl}phenyl)imidazo[1,5-a]pyrazin-3-yl]hexahydroindolizin-3(2H)-one] | 255 | 3470 |  |  |
| C[C@](O)(c1ccc(-c2nc([C@@H]3CC[C@H]4CCC(=O)N4C3)n3c(Cl)cnc(N)c23)cc1)c1cccc(C(F)(F)F)c1 [Example 5, (6R,8aS)-6-(8-amino-5-chloro-1-(4-((S)-1-hydroxy-1-(3-(trifluoromethyl)phenyl)ethyl)phenyl)imidazo[1,5-a]pyrazin-3-yl)hexahydroindolizin-3(2H)-one] | 377 | 553 |  |  |
| CC(F)(F)c1cccc([C@](C)(O)c2ccc(-c3nc([C@@H]4CC[C@H]5CCC(=O)N5C4)n4c(Cl)cnc(N)c34)cc2)c1 [Example 140] | 0.22 |  |  | 1200 |

More lines, in order of falling IC50 [1], values ahead:

| IC50 [1] [nM] | IC50 [2, 3] [nM] | IC50 [2, 4] [nM] | SMILES | IC50 ([2]; Homo sapiens, HeLa, read-out: ADU inhibition IC50 (nM), [3H]adenosine accumulation in HeLa cells) [nM] |
| --- | --- | --- | --- | --- |
| 60.3 |  | 3650 | CCOc1cc(C(C)(O)c2cccc(C)c2)ccc1-c1nc([C@@H]2CC[C@H]3CCC(=O)N3C2)n2ccnc(N)c12 (stereo partly drawn) [Example 168, (6R,8aS)-6-(8-amino-1-{2-ethoxy-4-[1-hydroxy-1-(3-methylphenyl)ethyl]phenyl}imidazo[1,5-a]pyrazin-3-yl)hexahydroindolizin-3(2H)-one] |  |
| 36.9 |  | 431 | CC(O)(c1cccc(C(F)(F)F)c1)c1ccc(-c2nc([C@@H]3CC[C@@H]4N(C3)C(=O)CC4(C)C)n3ccnc(N)c23)c(F)c1 (stereo partly drawn) [Example 191, (6R,8aS)-6-[8-amino-1-(2-fluoro-4-{1-hydroxy-1-[3-(trifluoromethyl)phenyl]ethyl}phenyl)imidazo [1,5-a]pyrazin-3-yl]-1,1-dimethylhexahydroindolizin-3(2H)-one] |  |
| 12.1 |  | 2040 | CC(O)(c1ccc(-c2nc([C@@H]3CC[C@H]4CCC(=O)N4C3)n3ccnc(N)c23)cc1)c1cc(C(F)(F)F)ccc1F (stereo partly drawn) [Example 151, (6R,8aS)-6-[8-amino-1-(4-{1-[2-fluoro-5-(trifluoromethyl)pheny]-1-hydroxyethyl}phenyl)imidazo[1,5-a]pyrazin-3-yl]hexahydroindolizin-3(2H)-one] |  |
| 10.1 | 1190 |  | COc1cc(-c2nc([C@@H]3CC[C@H]4CCC(=O)N4C3)n3ccnc(N)c23)ccc1[C@@](C)(O)c1cccc(C2CC2)c1 [Example 99, (6R,8aS)-6-(8-amino-1-{4-[(1S)-1-(3-cyclopropylphenyl)-1-hydroxyethyl]-3-methoxyphenyl}imidazo [1,5-a]pyrazin-3-yl)hexahydroindolizin-3(2H)-one] |  |
| 5.1 | 4670 |  | CC(C)N1CC(=O)N2C[C@@H](c3nc(-c4ccc([C@@](C)(O)c5cccc(C(F)(F)F)c5)cc4)c4c(N)nccn34)CC[C@@H]2C1 [Example 120, (7S,9aR)-7-[8-amino-1-(4-{(1R)-1-hydroxy-1-[3-(trifluoromethyl)phenyl]ethyl}phenyl)imidazo [1,5-a]pyrazin-3-yl]-2-(1-methylethyl)octahydro-4H-pyrido[1,2-a]pyrazin-4-one] |  |
| 1.8 |  | 5340 | COc1cc(C(O)(c2cccc(C(F)(F)F)c2)C(F)(F)F)ccc1-c1nc([C@@H]2CC[C@H]3CCC(=O)N3C2)n2ccnc(N)c12 (single isomer, unassigned) [Example 11] |  |
| 1.1 | 2760 |  | COc1cccc([C@](C)(O)c2ccc(-c3nc([C@@H]4CC[C@H]5CCC(=O)N5C4)n4ccnc(N)c34)cc2)c1 [Example 45, (6R,8aS)-6-(8-amino-1-{4-[(1R)-1-hydroxy-1-(3-methoxyphenyl)ethyl]phenyl}imidazo[1,5-a]pyrazin-3-yl)hexahydroindolizin-3(2H)-one] |  |
| 0.2 |  | 2990 | CC(O)(c1ccc(-c2nc([C@@H]3CC[C@H]4CCC(=O)N4C3)n3ccnc(N)c23)cc1)c1cccc(OC(F)F)c1 (stereo partly drawn) [Example 148, (6R,8aS)-6-[8-amino-1-(4-{1-[3-(difluoromethoxy)phenyl]-1-hydroxyethyl}phenyl)imidazo[1,5-a]pyrazin-3-yl]hexahydroindolizin-3(2H)-one] |  |
| 0.2 | 3620 |  | CC1(C)C[C@@H]2CC[C@@H](c3nc(-c4ccc([C@@](C)(O)c5cccc(C(F)F)c5)cc4)c4c(N)nccn34)CN2C1=O [Example 181, (6R,8aS)-6-[8-amino-1-(4-{(1R)-1-[3-(difluoromethyl)phenyl]-1-hydroxyethyl}phenyl)imidazo[1,5-a]pyrazin-3-yl]-2,2-dimethylhexahydroindolizin-3(2H)-one] |  |
